Publication PMC8404199, “Structure–Activity Relationships of Triple-Action Platinum(IV) Prodrugs with Albumin-Binding Properties and Immunomodulating Ligands” (Journal of Medicinal Chemistry, 2021)
Read-outs that look alike come from different tables or passages of the source.

How the values were obtained:
[1] = system: CT26 colon cancer allografts; experiment: Anticancer activity against CT26 allografts in Balb/c mice; type: in vivo; details: iv, equimolar to 9 mg/kg oxaliplatin, twice a week for 2 weeks
Experimental: Every day, the animals were monitored for body weight and the enhanced stress level, and the tumor size was measured using a caliper according to the formula length × width^2/2.

[2] = system: tumor-infiltrating T-cell populations; experiment: Flow cytometry of T-cell populations in CT26 tumors and tumor-draining lymph nodes; type: in vivo, Balb/c mice; details: 24 h after single iv treatment equimolar to 9 mg/kg oxaliplatin
Experimental: CT26 cells (5 × 10^5 cells in 50 μL of serum-free RPMI medium) were injected into the right flank of female Balb/c mice (n = 4 per group). On day 7, when the tumors reached a mean tumor volume of ∼170 mm^3, mice were treated once iv with MalEs/IdoCa at a concentration equimolar to 9 mg/kg (dissolved in 20% PG in PBS) or solvent only. After 24 h, the animals were sacrificed, and tumor tissues and the tumor-draining lymph nodes were isolated. Tissues were collected in a tube with 750 μL of ice-cold PBS containing 5% FBS and cut into small pieces. Samples were digested using PBS containing 50 mg/mL collagenase (C2139, Merck, Darmstadt, Germany) and 50 mg/mL DNase I (DN25, Darmstadt, Germany) and filtered several times through a 70 μm cell strainer (734-2761, VWR, Pennsylvania, USA). The samples were centrifuged, and cell pellets were treated with ammonium–chloride–potassium (ACK)-buffer (150 mM NH4Cl, 10 mM KHCO3, 127 μM EDTA, pH 7.2–7.4) to lyse red blood cells and centrifuged in a Würzburg buffer (PBS containing 5% FBS, 5 mM EDTA, 20 μg/mL DNase I).
Cells were washed with PBS and stained using the Aqua Zombie Fixable Viability Kit (423101, BioLegend, California, USA), according to the manufacturer’s instructions. […] The cleaned up data were analyzed using the gating strategy, as shown in Figure S15 for murine tissue and Figure S16 for human co-culture experiment.

[3] = Organ distribution of platinum in SKOV3-bearing SCID mice; details: 24 h after single iv dose equimolar to 9 mg/kg oxaliplatin; for Platinum ratio tumor:kidney / Platinum ratio tumor:liver: ratio of mean platinum levels
Experimental: For tissue digestion, approx. 25–50 mg of tissue was weighed into perfluoralkoxy tubes, and 2 mL of HNO3 and 100 μL H2O2 (30%, Suprapur, Merck, Darmstadt, Germany) were added. The solutions were placed on a hot plate and heated up for 7 h using a temperature program with a maximum of 200 °C. The liquids were transferred to 15 mL tubes with the remaining solution being removed by washing twice with 4 mL of ultrapure water.
Platinum concentrations were measured using an Agilent 7800 ICP-QMS instrument (Agilent Technologies, Tokyo, Japan) equipped with an Agilent SPS 4 autosampler (Agilent Technologies, Tokyo, Japan) and a MicroMist nebulizer at a sample uptake rate of approx. 0.2 mL/min. […] All of the measured samples were blank corrected (for the cell culture data, wells containing no cells were used). Elemental standard solutions were purchased from Labkings (Hilversum, The Netherlands). The instrument was tuned on a daily basis.
SKOV3 cells (1.5 × 10^6 cells in 50 μL serum-free medium) were injected subcutaneously into the right flank of male SCID mice. […] Then, the animals were sacrificed by cervical dislocation, and tumors and organs were collected for the measurement with ICP–MS. For plasma isolation, blood was collected in ethylenediaminetetraacetic acid (EDTA)-coated tubes and centrifuged for 10 min at 900g at 4 °C. Plasma was transferred to a new tube and centrifuged once more to remove residual red blood cells.

IDO = experiment: LC-HRMS of 1-MDT and Trp metabolites in tumor tissue; type: in vivo, mice; details: 24 h after treatment
Experimental: To 50 mg of tumor tissue, 50 μL of fully ^13C internal standard (labeled yeast extract prepared in 2 mL of H2O; ISOtopic solutions e.U., Vienna, Austria) and 950 μL of 80% MeOH (LC–MS grade, Sigma-Aldrich, Vienna, Austria) were added and homogenized in a Dounce-type glass tissue grinder. The homogenate was collected, the tissue homogenizer was washed twice with 400 μL 80% MeOH (LC–MS grade, Sigma-Aldrich, Vienna, Austria), and the washing solution was added to the homogenate. The samples were vortexed, centrifuged (14,000g, 4 °C, 20 min), and kept on dry ice until further processing. 500 μL of tumor sample aliquots was dried for direct LC–HRMS analysis.
All samples were resuspended in 100 μL of water (supernatant sample: same volume; tumor samples 5-fold concentration) and measured using a 12 min method based on reversed-phase chromatography (column: HSS T3, 1.8 μm, 2.1 × 150 mm, Waters) and high-resolution mass spectrometry (Orbitrap HF, Thermo). For quantification, multi-point calibration with external standard mixes (Kyn, Trp, and kynurenic acid) using co-eluting ^13C internal standards was performed and analyzed by Skyline 20.2.0.286. For 1-MDT, relative quantification based on ^13C Trp normalization was performed.

[4] = UHPLC reduction kinetics with dithiothreitol; type: physicochemical; details: 1 mM complex, 10 mM DTT, 1% DMF, 500 mM phosphate buffer pH 7.4, 20 °C
Experimental: Figure S 3: Reduction kinetics of reference compounds with AA at 20°C , measured by UHPLC and UV absorption at 220 nm. A: Comparison of OAc/IPAEs with amino -group containing SucCa/IdoEs; B:
Reductive stability of reference compounds with no 1MDT -like ligand. AUC-values were normalized to t = 0. Experimental conditions: 1 mM complex, 10 mM AA in 1% DMF and 500 mM phosphate buffer […]
conditions: 1 mM complex, 10 mM DTT in 1% DMF and 500 mM phosphate buffer (pH 7.4). […]

[5] = UHPLC reduction experiments with L-ascorbic acid; type: physicochemical; details: 1 mM complex, 10 mM AA, pH 7.4, 20 °C
Experimental: The platinum(IV)–succinimide complexes were dissolved in 2% DMF in phosphate buffer (500 mM, pH 7.4) to a final concentration of 2 mM. The solutions were then mixed 1:1 with a 20 mM stock of L-ascorbic acid in phosphate buffer (500 mM, pH 7.4) to obtain final concentrations of 1 mM complex, 10 mM L-ascorbic acid, and 1% DMF. The samples were incubated at 20 °C and measured on a Dionex UltiMate 3000 RS UPLC system with a Waters Acquity UPLC BEH C18 column (3 × 50 mm, pore size 1.7 μm) and absorption detection at 220 nm. Data points were taken at t = 0 and every 30 min for 6 h.

[6] = system: human hepatic cell line (WRL68); experiment: MTT cytotoxicity assay in non-malignant WRL68 cells; type: cell-based; details: 72 h
Experimental: (§1) The cells were seeded at 3500–6000 cells/well in 96-well plates depending on the proliferation rate of the respective cell line and allowed to recover for 24 h. Subsequently, the cells were treated at indicated concentrations for 48 or 72 h. Cells were additionally incubated with 5-fold equimolar concentrations of ascorbic acid to increase the reduction rate of the compounds. Cell viability was measured by the MTT-based vitality assay (EZ4U; Biomedica, Vienna, Austria), following the manufacturer’s recommendations.

[7] = system: murine CT26 colon cancer cells; experiment: MTT cytotoxicity assay in CT26 cells; type: cell-based
Experimental: (§2) Cells were additionally incubated with 5-fold equimolar concentrations of ascorbic acid to increase the reduction rate of the compounds. Cell viability was measured by the MTT-based vitality assay (EZ4U; Biomedica, Vienna, Austria), following the manufacturer’s recommendations.

human SKOV3 cancer cells = experiment: MTT cytotoxicity assay in SKOV3 cells; type: cell-based; details: 72 h incubation, with 5 eq. AA; read-out: SKOV3 IC50 values + 5 eq. AA, mean
Experimental: as §1

[8] = system: VM7 melanoma cancer cells; experiment: MTT cytotoxicity assay in VM7 cells; type: cell-based, human; details: 72 h
Experimental: as §1

[9] = system: human HCT116 colon cancer cells; experiment: MTT cytotoxicity assay in HCT116 cells; type: cell-based
Experimental: as §2

HCT116 cells = experiment: Cellular platinum levels in HCT116 cells by ICP-MS; type: cell-based, human; details: HCT116, 20 μM, 3 h incubation
Experimental: HCT116 cells were seeded at 6 × 10^5 cells/well in a six-well plate and allowed to settle for 24 h. Cells were exposed to drugs at 20 μM for 3 h under normal cell culture conditions. Cells were washed twice with PBS and lysed at RT in 500 μL HNO3 (≥69%, Rotipuran Supra, Carl Roth, Karlsruhe, Germany) for 1 h. 400 μL of the lysate was transferred to 7.6 mL of ultrapure water (18.2 MΩ cm, Milli-Q Advantage, Darmstadt, Germany).
The instrument was tuned on a daily basis.

SKOV3 cancer cells = experiment: Long-term cytotoxicity assay (crystal violet) in SKOV3 cells; type: cell-based, human; details: 168 h, crystal violet stain, mean ± SD
Experimental: SKOV3 cells were seeded in duplicates at 5000 cells/well in 24-well plates and allowed to recover for 24 h. Subsequently, the cells were treated at the indicated concentrations for 168 h. Cells were fixed with ice-cold methanol (20 min at 4 °C), washed with PBS, and stained with crystal violet. Subsequently, colony formation was inspected, and the fluorescence signal was detected using Typhoon Trio imager (GE Healthcare, Little Chalfont, UK) at 610/30 nm BP and analyzed by ImageJ software.

[10] = system: human embryonic kidney cells (HEK293); experiment: MTT cytotoxicity assay in non-malignant HEK293 cells; type: cell-based; details: 72 h
Experimental: as §1

## Cn1cc(C[C@@H](NC(=O)[O][Pt]2([O]C(=O)CCCCCN3C(=O)C=CC3=O)[O]C(=O)C(=O)[O]2)C(=O)O)c2ccccc21.N[C@@H]1CCCC[C@H]1N [MalEs/IdoCa, (OC-6-34)-[(R)-(1-Carboxy-2-(1-methyl-1H-indol-3-yl)ethyl)carbamato][(1R,2R)-1,2-cyclohexanediamino][6-(2,5-dioxo-2,5-dihydro-1H-pyrrol-1-yl)hexanoato]oxalatoplatinum(IV)]
[1]
  anticancer activity against CT26 tumors (in words): activity comparable to MalCa/IdoCa
[2]
  immune cell population in tumor-draining lymph nodes: no effect
  ratio of CD4+ to CD8+ T cells in the malignant tissue: significant shift
[3]
  plasma platinum concentration, fold higher than oxaliplatin or OAc/OAc: ~12 fold
  platinum levels in blood plasma: 5.9 mg/kg
  Platinum ratio tumor:kidney: 1.2
  Platinum ratio tumor:liver: 0.7
IDO; compared to solvent- or MalCa/IdoEs-treated animals
  IDO activity in tumor, Trp to Kyn ratio (in words): inhibition of IDO activity indicated by an improved Trp to Kyn ratio
IDO; SKOV3 tumor tissue
  1-MDT levels in tumor, fold higher than upon MalCa/IdoEs treatment: ~2 fold

## CC(=O)[O][Pt]12([O]C(=O)CCc3cn(C)c4ccccc34)([NH]C3CCCCC3[NH]1)[O]C(=O)C(=O)[O]2 [OAc/IPAEs, (OC-6-44)-Acetato[(1R,2R)-1,2-cyclohexanediamino][3-(1-methyl-1H-indol-3-yl)propanoato]oxalatoplatinum(IV)]
[4]
  reduction in the presence of dithiothreitol (in words): stable under these conditions
[5]
  reduction kinetics with AA (in words): comparable reduction kinetics to the carbamate-linked complexes

## Cn1cc(C[C@@H]([NH3+])C(=O)[O][Pt]2([O]C(=O)NCCCCCN3C(=O)C=CC3=O)[O]C(=O)C(=O)[O]2)c2ccccc21.N[C@@H]1CCCC[C@H]1N.O=C([O-])C(F)(F)F [MalCa/IdoEs, (OC-6-34)-[(R)-2-Ammonio-3-(1-methyl-1H-indol-3-yl)propanoato][(1R,2R)-1,2-cyclohexanediamino][5-(2,5-dioxo-2,5-dihydro-1H-pyrrol-1-yl)pentylcarbamato]oxalatoplatinum(IV) Trifluoroacetate]
[1]
  anticancer activity against CT26 tumors (in words): significant anticancer activity
[3]
  platinum levels in blood plasma: 1.9 mg/kg
  Platinum ratio tumor:kidney: 0.6
  Platinum ratio tumor:liver: 0.6
IDO
  kynurenic acid in tumors (in words): enhanced signals

## O=C1[O][Pt]2([NH][C@@H]3CCCC[C@H]3[NH]2)[O]C1=O [oxaliplatin, reference compound]
[6]
  IC50: 8.35 µM
[7]; 48 h incubation, with 5 equiv AA, read-out: CT26 IC50 values +AA, mean ± SD
  IC50: 1.53 ± 0.25 µM
[7]; 48 h incubation, without AA, read-out: CT26 IC50 values, mean ± SD
  IC50: 1.5 ± 0.39 µM
[7]; 72 h incubation, with 5 eq. AA, read-out: CT26 IC50 values + 5 eq. AA, mean
  IC50: 2.11 µM
[7]; 72 h incubation, without AA, read-out: CT26 IC50 values, mean
  IC50: 1.9 µM
Human SKOV3 cancer cells
  IC50: 43.4 µM
[8]
  IC50: 3.94 µM
[9]; 48 h incubation, with 5 equiv AA, read-out: HCT116 IC50 values +AA, mean ± SD
  IC50: 0.67 ± 0.01 µM
[9]; 48 h incubation, without AA, read-out: HCT116 IC50 values, mean ± SD
  IC50: 0.72 ± 0.01 µM
[9]; 72 h incubation, with 5 eq. AA, read-out: HCT116 IC50 values + 5 eq. AA, mean
  IC50: 0.74 µM
[9]; 72 h incubation, without AA, read-out: HCT116 IC50 values, mean
  IC50: 0.76 µM
HCT116 cells
  cellular platinum uptake (in words): taken up by the cells much more efficiently than any of the platinum(IV) prodrugs
SKOV3 cancer cells
  IC50: 6.2 ± 1.1 µM
[10]
  IC50: 2.1 µM
